Key:
[1] = target: PIM1 (Homo sapiens, UniProt P11309); test: KinaseGlo Pim1 ATP depletion assay; assay type: biochemical
Outline: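 IC50 is derived from residual ATP measured by KinaseGlo Plus luminescence once about half the ATP was consumed. Final conditions were 20 μM ATP, 40 μM BAD peptide and 2.5 nM kinase in HEPES pH 7.5 buffer with MgCl2, DTT and BSA, plus 2.5% DMSO. Compound and enzyme were premixed 15 min before ATP addition.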

[2] = target: PIM2 (Homo sapiens, UniProt Q9P1W9); test: KinaseGlo Pim2 ATP depletion assay; assay type: biochemical
Sequence of PIM2 (Q9P1W9 whole entry): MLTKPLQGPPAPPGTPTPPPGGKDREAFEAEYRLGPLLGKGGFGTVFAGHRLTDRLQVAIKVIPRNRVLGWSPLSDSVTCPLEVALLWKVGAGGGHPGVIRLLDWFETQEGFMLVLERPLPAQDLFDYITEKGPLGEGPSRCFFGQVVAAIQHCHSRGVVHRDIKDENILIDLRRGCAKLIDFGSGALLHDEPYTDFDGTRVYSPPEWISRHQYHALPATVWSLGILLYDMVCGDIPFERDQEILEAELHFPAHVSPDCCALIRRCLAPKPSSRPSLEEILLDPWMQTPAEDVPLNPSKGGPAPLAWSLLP
Outline: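 Compound sat 15 min with enzyme and BAD peptide before ATP was added; final levels 5 nM PIM2, 10 μM peptide, 4 μM ATP, 2.5% DMSO, pH 7.5 HEPES buffer with MgCl2, DTT, BSA. Stopped near 50% ATP consumption; remaining ATP measured by luciferase luminescence.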

[3] = target: PIM3 (Homo sapiens, UniProt Q86V86); test: KinaseGlo Pim3 ATP depletion assay; assay type: biochemical
Outline: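 Residual ATP was detected by luciferase luminescence once about half had been consumed. The reaction contained 5 nM enzyme, 100 μM BAD peptide (RSRHSSYPAGT) and 40 μM ATP in 50 mM HEPES pH 7.5, 5 mM MgCl2, 1 mM DTT and 0.05% BSA with 2.5% DMSO. Compound and enzyme/peptide were premixed 15 min before ATP.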

[4] = target: GSK3β (Homo sapiens, UniProt P49841); test: GSK3β ATP depletion assay; assay type: biochemical; conditions: read-out: GSK3b IC50
Sequence of GSK3β (P49841 whole entry, species assumed): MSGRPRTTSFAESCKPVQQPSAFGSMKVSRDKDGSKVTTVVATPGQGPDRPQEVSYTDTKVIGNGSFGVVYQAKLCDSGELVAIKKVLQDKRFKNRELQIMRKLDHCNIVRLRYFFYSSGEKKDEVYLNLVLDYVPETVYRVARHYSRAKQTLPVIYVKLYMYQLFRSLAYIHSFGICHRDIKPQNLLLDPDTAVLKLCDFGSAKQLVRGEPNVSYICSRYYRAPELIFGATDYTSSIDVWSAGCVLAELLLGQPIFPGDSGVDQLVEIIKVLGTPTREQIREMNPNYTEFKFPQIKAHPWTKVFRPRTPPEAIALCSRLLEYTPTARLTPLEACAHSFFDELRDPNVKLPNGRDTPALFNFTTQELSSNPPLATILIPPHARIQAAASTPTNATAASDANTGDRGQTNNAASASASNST
Outline: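 Kinase activity is read as ATP consumption: luciferase luminescence reports the ATP remaining once roughly half of the 2 μM ATP is used. Reaction mix: 5 nM GSK3β, 10 μM b-CREB peptide, 50 mM Tris pH 7.5, 15 mM MgCl2, 1 mM DTT, 0.1% BSA, 2.5% DMSO. Enzyme and peptide are preincubated 15 min before ATP is added.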

[5] = tested on: KMS11 (human myeloma cell line); test: Cell proliferation assay (CellTiter-Glo), KMS11; assay type: cell-based; conditions: Homo sapiens, KMS-11; KMS11-Luc cells
Outline: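 EC50 derived from CellTiter-Glo luminescence after 3-day exposure at 37° C. Compound was diluted to 2× in medium and added to an equal volume of cells. KMS11 myeloma cells were plated on assay day at 2000/well in IMDM with 10% FBS and sodium pyruvate.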

Sequence of PIM1 (P11309 whole entry): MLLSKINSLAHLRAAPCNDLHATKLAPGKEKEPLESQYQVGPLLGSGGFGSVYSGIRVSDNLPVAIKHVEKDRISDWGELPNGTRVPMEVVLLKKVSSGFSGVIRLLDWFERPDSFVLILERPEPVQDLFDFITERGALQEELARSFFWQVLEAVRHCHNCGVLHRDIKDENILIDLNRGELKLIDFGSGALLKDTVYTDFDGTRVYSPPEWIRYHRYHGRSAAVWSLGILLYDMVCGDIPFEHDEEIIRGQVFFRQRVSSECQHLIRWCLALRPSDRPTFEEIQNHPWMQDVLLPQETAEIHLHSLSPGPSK

Row | IC50 [1] [nM] | IC50 [2] [nM] | IC50 [3] [nM] | IC50 [4] [nM] | EC50 [5] [nM] | Structure (SMILES)
1 | 2 | 321 | 15 | 27 | > 10000 | O=C(Nc1cnccc1[C@@H]1C[C@H](O)CC2(CC2)O1)c1csc(-c2c(F)cccc2F)n1 [Example 62, 2-(2,6-difluorophenyl)-N-(4-((5S,7S)-7-hydroxy-4-oxaspiro[2.5]octan-5-yl)pyridin-3-yl)thiazole-4-carboxamide]
2 | 1 | 15 | 6 | 385 | 1500 | C[C@H]1O[C@@H](c2ccncc2NC(=O)c2ccc(F)c(-c3c(F)cccc3F)n2)[C@H](F)C(=O)[C@]1(C)O [Example 72, 6-(2,6-difluorophenyl)-5-fluoro-N-(4-((2S,3S,5R,6R)-3-fluoro-5-hydroxy-5,6-dimethyl-4-oxotetrahydro-2H-pyran-2-yl)pyridin-3-yl)picolinamide]
3 | 10 | 1110 | 200 | 3230 | > 10000 | CC[C@@]1(O)[C@H](C)O[C@H](c2ccncc2NC(=O)c2ccc(F)c(-c3c(F)cccc3F)n2)C[C@@H]1O [Example 73, 6-(2,6-difluorophenyl)-N-(4-((2S,4S,5S,6S)-5-ethyl-4,5-dihydroxy-6-methyltetrahydro-2H-pyran-2-yl)pyridin-3-yl)-5-fluoropicolinamide]
4 | 1 | 4 | 2 | 228 | 2200 | CC[C@H]1O[C@@H](c2ccncc2NC(=O)c2ccc(F)c(-c3c(F)cccc3F)n2)C[C@@H](O)[C@@H]1O [Example 75, 6-(2,6-difluorophenyl)-N-(4-((2R,4R,5S,6R)-6-ethyl-4,5-dihydroxytetrahydro-2H-pyran-2-yl)pyridin-3-yl)-5-fluoropicolinamide]
5 | 127 | 2520 | 151 | 5820 | 1500 | O=C(Nc1cnccc1[C@@H]1C[C@@H](O)[C@H](O)[C@@H](CO)O1)c1ccc(F)c(-c2c(F)cccc2F)n1 [Example 78, 6-(2,6-difluorophenyl)-N-(4-((2S,4R,5S,6R)-4,5-dihydroxy-6-(hydroxymethyl)tetrahydro-2H-pyran-2-yl)pyridin-3-yl)-5-fluoropicolinamide]
6 | 2 | 17 | 3 | 1450 | > 10000 | O=C(Nc1cnccc1C1=C[C@@H](O)[C@H](O)[C@@H](CO)O1)c1ccc(F)c(-c2c(F)cccc2F)n1 [Example 79, 6-(2,6-difluorophenyl)-N-(4-((2R,3S,4R)-3,4-dihydroxy-2-(hydroxymethyl)-3,4-dihydro-2H-pyran-6-yl)pyridin-3-yl)-5-fluoropicolinamide]
7 | 44 | 4920 | 171 | 1230 | > 10000 | O=C(Nc1cnccc1[C@H]1C[C@@H](O)[C@H](O)[C@@H](CO)O1)c1csc(-c2c(F)cccc2F)n1 [Example 80, 2-(2,6-difluorophenyl)-N-(4-((2R,4R,5S,6R)-4,5-dihydroxy-6-(hydroxymethyl)tetrahydro-2H-pyran-2-yl)pyridin-3-yl)thiazole-4-carboxamide]
8 | 19 | 291 | 32 | 2800 | > 10000 | O=C(Nc1cnccc1[C@H]1C[C@@H](O)[C@H](O)[C@@H](CO)O1)c1ccc(F)c(-c2c(F)cccc2F)n1 [Example 83, 6-(2,6-difluorophenyl)-N-(4-((2R,4R,5S,6R)-4,5-dihydroxy-6-(hydroxymethyl)tetrahydro-2H-pyran-2-yl)pyridin-3-yl)-5-fluoropicolinamide]
9 | 1 | 80 | 5 | 10 | 9700 | CC1(C)O[C@@H](c2ccncc2NC(=O)c2csc(-c3c(F)cccc3F)n2)C[C@H](O)[C@@H]1O [Example 88, 2-(2,6-difluorophenyl)-N-(4-((2R,4S,5S)-4,5-dihydroxy-6,6-dimethyltetrahydro-2H-pyran-2-yl)pyridin-3-yl)thiazole-4-carboxamide]
10 | 1 | 6 | 2 | 88 | 2400 | CC1(C)O[C@@H](c2ccncc2NC(=O)c2ccc(F)c(-c3c(F)cccc3F)n2)C[C@H](O)[C@@H]1O [Example 89, 6-(2,6-difluorophenyl)-N-(4-((2R,4S,5S)-4,5-dihydroxy-6,6-dimethyltetrahydro-2H-pyran-2-yl)pyridin-3-yl)-5-fluoropicolinamide]
11 | 5 | 500 | 31 | 46 | 4000 | CC1(C)O[C@H](c2ccncc2NC(=O)c2csc(-c3c(F)cccc3F)n2)C[C@@H](O)[C@H]1O [Example 90, 2-(2,6-difluorophenyl)-N-(4-((2S,4R,5R)-4,5-dihydroxy-6,6-dimethyltetrahydro-2H-pyran-2-yl)pyridin-3-yl)thiazole-4-carboxamide]
12 | 3 | 47 | 13 | 171 | 7100 | CC1(C)O[C@H](c2ccncc2NC(=O)c2ccc(F)c(-c3c(F)cccc3F)n2)C[C@@H](O)[C@H]1O [Example 91, 6-(2,6-difluorophenyl)-N-(4-((2S,4R,5R)-4,5-dihydroxy-6,6-dimethyltetrahydro-2H-pyran-2-yl)pyridin-3-yl)-5-fluoropicolinamide]
13 | 1 | 16 | 2 | 125 | > 10000 | C[C@H]1O[C@@H](c2ccncc2NC(=O)c2cccc(-c3ccccc3F)n2)C[C@@H](O)[C@]1(C)O [Example 92, N-(4-((2R,4R,5S,6R)-4,5-dihydroxy-5,6-dimethyltetrahydro-2H-pyran-2-yl)pyridin-3-yl)-6-(2-fluorophenyl)picolinamide]
14 | 1 | 59 | 5 | 117 | > 10000 | C[C@H]1O[C@@H](c2ccncc2NC(=O)c2ccc(F)c(-c3ccccc3F)n2)C[C@@H](O)[C@]1(C)O [Example 93, N-(4-((2R,4R,5S,6R)-4,5-dihydroxy-5,6-dimethyltetrahydro-2H-pyran-2-yl)pyridin-3-yl)-5-fluoro-6-(2-fluorophenyl)picolinamide]
15 | 14 | 3380 | 75 | 3170 | > 10000 | O=C(Nc1cnccc1[C@@H]1OCC[C@H](CO)O1)c1csc(-c2c(F)cccc2F)n1 [Example 99, 2-(2,6-difluorophenyl)-N-(4-((2R,4R)-4-(hydroxymethyl)-1,3-dioxan-2-yl)pyridin-3-yl)thiazole-4-carboxamide]
16 | 10 | 799 | 42 | 2470 | > 10000 | O=C(Nc1cnccc1[C@@H]1OCC[C@H](CO)O1)c1ccc(F)c(-c2c(F)cccc2F)n1 [Example 100, 6-(2,6-difluorophenyl)-5-fluoro-N-(4-((2R,4R)-4-(hydroxymethyl)-1,3-dioxan-2-yl)pyridin-3-yl)picolinamide]
17 | 12 | 1340 | 68 | 2600 | > 10000 | O=C(Nc1cnccc1[C@H]1OC[C@H](CO)O1)c1ccc(F)c(-c2c(F)cccc2F)n1 [Example 101, 6-(2,6-difluorophenyl)-5-fluoro-N-(4-((2S,4S)-4-(hydroxymethyl)-1,3-dioxolan-2-yl)pyridin-3-yl)picolinamide]

Source: US20130109682A1, “CYCLIC ETHER COMPOUNDS USEFUL AS KINASE INHIBITORS” (NOVARTIS AG, priority 2010, published 2013)
